pIC50: −log10 of the molar value.
Tests used:
BT-549 [1] = test: Growth inhibition of human BT549 cells after 48 hrs by sulforhodamine B assay; assay type: functional; conditions: BT-549, 48 h
SK-MEL-28 [2] = test: Growth inhibition of human SK-MEL-28 cells assessed as cell growth at 10 uM after 48 hrs by sulforhodamine B assay; assay type: functional; conditions: SK-MEL-28, 48 h, read-out: Activity
SW-620 [3] = test: Growth inhibition of human SW620 cells assessed as cell growth at 10 uM after 48 hrs by sulforhodamine B assay; assay type: functional; conditions: SW-620, 48 h, read-out: Activity
NCI-H322M = test: Growth inhibition of human NCI-H322M cells assessed as cell growth at 10 uM after 48 hrs by sulforhodamine B assay; assay type: functional; conditions: read-out: Activity
RXF 393 = test: Growth inhibition of human RXF393 cells after 48 hrs by sulforhodamine B assay; assay type: functional; conditions: RXF 393, 48 h
ACHN [4] = test: Growth inhibition of human ACHN cells after 48 hrs by sulforhodamine B assay; assay type: functional
SW-620 [5] = test: Growth inhibition of human SW620 cells after 48 hrs by sulforhodamine B assay; assay type: functional; conditions: SW-620, 48 h
SK-MEL-28 [6] = test: Growth inhibition of human SK-MEL-28 cells after 48 hrs by sulforhodamine B assay; assay type: functional; conditions: SK-MEL-28, 48 h
BT-549 [7] = test: Growth inhibition of human BT549 cells assessed as cell growth at 10 uM after 48 hrs by sulforhodamine B assay; assay type: functional; conditions: BT-549, 48 h, read-out: Activity
NCI-H226 = test: Growth inhibition of human NCI-H226 cells assessed as cell growth at 10 uM after 48 hrs by sulforhodamine B assay; assay type: functional; conditions: NCI-H226, 48 h, read-out: Activity
MOLT-4 = test: Growth inhibition of human MOLT4 cells assessed as cell growth at 10 uM after 48 hrs by sulforhodamine B assay; assay type: functional; conditions: MOLT-4, 48 h, read-out: Activity
MDA-MB-435 = test: Growth inhibition of human MDA-MB-435 cells assessed as cell growth at 10 uM after 48 hrs by sulforhodamine B assay; assay type: functional; conditions: MDA-MB-435, 48 h, read-out: Activity
CAKI-1 = test: Growth inhibition of human CAKI-1 cells assessed as cell growth at 10 uM after 48 hrs by sulforhodamine B assay; assay type: functional; conditions: CAKI-1, 48 h, read-out: Activity
SN12C = test: Growth inhibition of human SN12C cells assessed as cell growth at 10 uM after 48 hrs by sulforhodamine B assay; assay type: functional; conditions: read-out: Activity
[8] = Growth inhibition of human HCC2998 cells after 48 hrs by sulforhodamine B assay; assay type: functional; conditions: HCC 2998, 48 h
NCI-H522 = test: Growth inhibition of human NCI-H522 cells after 48 hrs by sulforhodamine B assay; assay type: functional; conditions: NCI-H522, 48 h
UACC-62 [9] = test: Growth inhibition of human UACC62 cells after 48 hrs by sulforhodamine B assay; assay type: functional; conditions: UACC-62, 48 h
A498 [10] = test: Growth inhibition of human A498 cells after 48 hrs by sulforhodamine B assay; assay type: functional, cell-based; conditions: A498, 48 h
ACHN [11] = test: Growth inhibition of human ACHN cells assessed as cell growth at 10 uM after 48 hrs by sulforhodamine B assay; assay type: functional; conditions: read-out: Activity
MCF7 = test: Growth inhibition of human MCF7 cells assessed as cell growth at 10 uM after 48 hrs by sulforhodamine B assay; assay type: functional; conditions: MCF7, 48 h, read-out: Activity
KM12 = test: Growth inhibition of human KM12 cells assessed as cell growth at 10 uM after 48 hrs by sulforhodamine B assay; assay type: functional; conditions: KM12, 48 h, read-out: Activity
COLO 205 = test: Growth inhibition of human COLO205 cells after 48 hrs by sulforhodamine B assay; assay type: functional; conditions: COLO 205, 48 h
HCT-116 = test: Growth inhibition of human HCT116 cells after 48 hrs by sulforhodamine B assay; assay type: functional; conditions: HCT-116, 48 h
A498 [12] = test: Growth inhibition of human A498 cells assessed as cell growth at 10 uM after 48 hrs by sulforhodamine B assay; assay type: functional; conditions: A498, 48 h, read-out: Activity
SF-539 [13] = test: Growth inhibition of human SF539 cells assessed as cell growth at 10 uM after 48 hrs by sulforhodamine B assay; assay type: functional; conditions: SF-539, 48 h, read-out: Activity
RPMI-8226 = test: Growth inhibition of human RPMI8226 cells assessed as cell growth at 10 uM after 48 hrs by sulforhodamine B assay; assay type: functional; conditions: RPMI-8226, 48 h, read-out: Activity
786-0 = test: Growth inhibition of human 786-0 cells assessed as cell growth at 10 uM after 48 hrs by sulforhodamine B assay; assay type: functional; conditions: 786-0, 48 h, read-out: Activity
SF-295 = test: Growth inhibition of human SF295 cells after 48 hrs by sulforhodamine B assay; assay type: functional, cell-based; conditions: SF-295, 48 h
SF-539 [14] = test: Growth inhibition of human SF539 cells after 48 hrs by sulforhodamine B assay; assay type: functional; conditions: SF-539, 48 h
UACC-62 [15] = test: Growth inhibition of human UACC62 cells assessed as cell growth at 10 uM after 48 hrs by sulforhodamine B assay; assay type: functional; conditions: UACC-62, 48 h, read-out: Activity
DU-145 = test: Growth inhibition of human DU145 cells assessed as cell growth at 10 uM after 48 hrs by sulforhodamine B assay; assay type: functional; conditions: DU-145, 48 h, read-out: Activity
IGROV-1 = test: Growth inhibition of human IGROV1 cells after 48 hrs by sulforhodamine B assay; assay type: functional; conditions: IGROV-1, 48 h
UACC-257 [16] = test: Growth inhibition of human UACC257 cells assessed as cell growth at 10 uM after 48 hrs by sulforhodamine B assay; assay type: functional; conditions: UACC-257, 48 h, read-out: Activity
UACC-257 [17] = test: Growth inhibition of human UACC257 cells after 48 hrs by sulforhodamine B assay; assay type: functional; conditions: UACC-257, 48 h
[18] = read-out: LC50 (the source's name)

## COc1cc(-c2nn(-c3cccc(NC(=O)Nc4ccc(Cl)c(Cl)c4)c3)cc2-c2ccncc2)ccc1Cl
BT-549 [1]
  GI50: 1680 nM
  LC50 (50% lethal concentration): > 50000 nM
  TGI: 27600 nM
SK-MEL-28 [2]
  growth at 10 µM: 4.96%
SW-620 [3]
  growth at 10 µM: 13.4%
NCI-H322M
  growth at 10 µM: 38.8%
RXF 393
  GI50: 859 nM
  LC50 (concentration killing 50% of cells): > 50000 nM
  TGI: 2440 nM
ACHN [4]
  GI50: 1000 nM
  TGI: > 50000 nM
ACHN [4]; [18]
  CC50: > 50000 nM
SW-620 [5]
  GI50: 1590 nM
  TGI: > 50000 nM
SW-620 [5]; [18]
  CC50: > 50000 nM
SK-MEL-28 [6]
  GI50: 1430 nM
  LC50: > 50000 nM
  TGI: 7320 nM
BT-549 [7]
  growth at 10 µM: 6.23%
NCI-H226
  growth at 10 µM: 9.61%
MOLT-4
  growth at 10 µM: -11.1%
MDA-MB-435
  growth at 10 µM: -45.8%
CAKI-1
  growth at 10 µM: 16.8%
SN12C
  growth at 10 µM: 10.7%
[8]
  GI50: 1560 nM
  TGI: 6200 nM
[8]; [18]
  CC50: > 50000 nM
NCI-H522
  GI50: 811 nM
  LC50 (concentration killing 50% of cells): > 50000 nM
  TGI: 3100 nM
UACC-62 [9]
  GI50: 773 nM
  LC50 (50% lethal concentration): 4490 nM
  TGI: 1860 nM
A498 [10]
  GI50: 1140 nM
  pIC50: 5.94
  TGI: 4590 nM
A498 [10]; [18]
  CC50: > 50000 nM
ACHN [11]
  growth at 10 µM: 11.5%
MCF7
  growth at 10 µM: 1.73%
KM12
  growth at 10 µM: 1.3%
COLO 205
  GI50: 937 nM
  LC50 (concentration killing 50% of cells): 3140 nM
  TGI: 1720 nM
HCT-116
  GI50: 1210 nM
  TGI: > 50000 nM
HCT-116; [18]
  CC50: > 50000 nM
A498 [12]
  growth at 10 µM: -6.82%
SF-539 [13]
  growth at 10 µM: 12.3%
RPMI-8226
  growth at 10 µM: -11.6%
786-0
  growth at 10 µM: 15.3%
SF-295
  GI50: 691 nM
  pIC50: 6.16
  TGI: 2530 nM
SF-295; [18]
  CC50: > 50000 nM
SF-539 [14]
  GI50: 965 nM
  LC50 (concentration killing 50% of cells): > 50000 nM
  TGI: 3080 nM
UACC-62 [15]
  growth at 10 µM: -65.1%
DU-145
  growth at 10 µM: 20%
IGROV-1
  GI50: 1180 nM
  LC50 (concentration killing 50% of cells): > 50000 nM
  TGI: 3480 nM
UACC-257 [16]
  growth at 10 µM: -36.6%
UACC-257 [17]
  GI50: 1040 nM
  TGI: 3110 nM
UACC-257 [17]; [18]
  CC50: > 50000 nM

Reference: ChEMBL document CHEMBL2440076, “New triarylpyrazoles as broad-spectrum anticancer agents: design, synthesis, and biological evaluation” (Eur J Med Chem, 2013)
